We go through six compounds from PubChem BioAssay (NCI).

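Five concentrations, 48 hours, 96-well plates. GI50: concentration for 50% inhibition of growth. The concentration for full growth arrest is given as TGI.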 Where only a bound is given, the exact number is not on record here.

Among the test systems are SNB-19 CNS; UACC-257 melanoma; OVCAR-3 ovarian; SK-OV-3 ovarian; LOX IMVI melanoma; RPMI-8226 leukemia; MCF7 breast; NCI-H23 lung; SF-268 CNS; HOP-62 NSCLC.
Common to all, as to experiment: inhibition of tumour cell growth, NCI panel, 48 h

For `CCN(CC)S(=O)(=O)c1ccc(OC)c(Nc2ncc(-c3ccccc3)o2)c1`, the GI50 in the experiment on SNB-19 CNS was greater than 19.2 µM; in the experiment with UACC-257 melanoma, greater than 25 µM; in the experiment with OVCAR-3 ovarian it was greater than 19.5 µM; in the experiment on SK-OV-3 ovarian, 20.9 µM; in the experiment with LOX IMVI melanoma it was greater than 22.6 µM; in the experiment with RPMI-8226 leukemia, greater than 25 µM. Also, the GI50 was greater than 14.7 µM with MCF7 breast, greater than 22.7 µM with NCI-H23 lung, greater than 22.3 µM with SF-268 CNS and greater than 20.1 µM in the experiment on HOP-62 NSCLC. Besides, the TGI with SNB-19 CNS, in the experiment on UACC-257 melanoma, in the experiment on OVCAR-3 ovarian, in the experiment with SK-OV-3 ovarian, in the experiment with LOX IMVI melanoma and in the experiment on RPMI-8226 leukemia was greater than 25 µM throughout. Besides, the TGI with MCF7 breast, in the experiment with NCI-H23 lung, with SF-268 CNS and with HOP-62 NSCLC was greater than 25 µM throughout.

Regarding `COC(=O)/C=C/C=C(c1ccccc1)c1ccccc1`, the GI50 is 9.31 µM with SNB-19 CNS; 8.82 µM with UACC-257 melanoma; 2.4 µM in the experiment on OVCAR-3 ovarian; 5.93 µM in the experiment on SK-OV-3 ovarian; 5.87 µM with LOX IMVI melanoma; 6.36 µM in the experiment with RPMI-8226 leukemia. For the same compound, the GI50 is 4.08 µM in the experiment with MCF7 breast, 16.3 µM with NCI-H23 lung, 4.63 µM in the experiment on SF-268 CNS and 4.14 µM in the experiment with HOP-62 NSCLC. Also, the TGI in the experiment with SNB-19 CNS is greater than 100 µM; in the experiment with UACC-257 melanoma, greater than 100 µM; in the experiment with OVCAR-3 ovarian, 8.24 µM; in the experiment with SK-OV-3 ovarian it was 48.9 µM; in the experiment with LOX IMVI melanoma, 21.7 µM; in the experiment on RPMI-8226 leukemia, 95.5 µM. Further, the TGI in the experiment with MCF7 breast is greater than 100 µM; with NCI-H23 lung it was greater than 100 µM; in the experiment with SF-268 CNS, greater than 100 µM; in the experiment with HOP-62 NSCLC, 40.9 µM.

Turning to `CNC(=O)n1ccc2cc(Oc3ccnc(NC(=O)c4ccc(C5CCN(CCO)CC5)cc4)c3)c(OCCOC)cc21`, the GI50 is 7.47 µM in the experiment with SNB-19 CNS; 2.24 µM in the experiment with UACC-257 melanoma; 3.67 µM with OVCAR-3 ovarian; 10.5 µM in the experiment with SK-OV-3 ovarian; 1.77 µM with LOX IMVI melanoma; 2 µM in the experiment on RPMI-8226 leukemia. The GI50 was 4.33 µM in the experiment on MCF7 breast, 10.5 µM in the experiment on NCI-H23 lung, 10.2 µM in the experiment on SF-268 CNS and 4.56 µM with HOP-62 NSCLC. Also, the TGI came out at 21.5 µM in the experiment on SNB-19 CNS; 5.73 µM with UACC-257 melanoma; 11 µM with OVCAR-3 ovarian; 23.1 µM with SK-OV-3 ovarian; 3.7 µM in the experiment on LOX IMVI melanoma; 6.58 µM with RPMI-8226 leukemia. The TGI turned out to be 19.5 µM in the experiment with MCF7 breast, 24.4 µM in the experiment on NCI-H23 lung, 23 µM with SF-268 CNS and 18.6 µM with HOP-62 NSCLC.

With `CNC(=O)c1cncc(/C=C/c2ccccc2C)c1`, the GI50 in the experiment on SNB-19 CNS, in the experiment with UACC-257 melanoma, in the experiment on OVCAR-3 ovarian, in the experiment with SK-OV-3 ovarian, in the experiment on LOX IMVI melanoma and with RPMI-8226 leukemia was greater than 25 µM each time. In addition, the GI50 in the experiment on MCF7 breast, with NCI-H23 lung, in the experiment on SF-268 CNS and in the experiment on HOP-62 NSCLC was greater than 25 µM in each case. Moreover, the TGI in the experiment on SNB-19 CNS, in the experiment on UACC-257 melanoma, in the experiment on OVCAR-3 ovarian, with SK-OV-3 ovarian, in the experiment on LOX IMVI melanoma and in the experiment with RPMI-8226 leukemia was greater than 25 µM in each case. In addition, the TGI in the experiment with MCF7 breast, with NCI-H23 lung, in the experiment on SF-268 CNS and in the experiment with HOP-62 NSCLC was greater than 25 µM in each case.

As to `C=CCc1c2c(c(OC)c3ccoc13)C(=O)/C(=C/c1ccccc1OC)O2`, the GI50 in the experiment with SNB-19 CNS was 5.83 µM; in the experiment on UACC-257 melanoma, 6.41 µM; in the experiment on OVCAR-3 ovarian, 3.28 µM; with SK-OV-3 ovarian, 5.45 µM; in the experiment on LOX IMVI melanoma it was 3.13 µM; with RPMI-8226 leukemia it was 3.51 µM. For the same compound, the GI50 with MCF7 breast is 2.92 µM; with NCI-H23 lung, 2.88 µM; in the experiment on SF-268 CNS, 3.73 µM; in the experiment with HOP-62 NSCLC it was 4.98 µM. The TGI in the experiment with SNB-19 CNS was greater than 100 µM; in the experiment on UACC-257 melanoma, greater than 100 µM; in the experiment with OVCAR-3 ovarian, 12.2 µM; in the experiment on SK-OV-3 ovarian, 35.1 µM; in the experiment on LOX IMVI melanoma, 27.1 µM; in the experiment on RPMI-8226 leukemia it was greater than 100 µM. In addition, the TGI in the experiment with MCF7 breast was greater than 100 µM; with NCI-H23 lung it was 14.7 µM; with SF-268 CNS it was 60.4 µM; in the experiment with HOP-62 NSCLC it was 46.3 µM.

For the compound `COc1cc(C2c3cc4c(cc3OC(N3CCCC3)C2C)OCO4)cc(OC)c1OC` (stereo not given), the TGI in the experiment on SNB-19 CNS is 15.4 µM; in the experiment on UACC-257 melanoma it was 49 µM; in the experiment with OVCAR-3 ovarian it was 0.601 µM; with SK-OV-3 ovarian, 12.2 µM; with LOX IMVI melanoma, 25.9 µM; with RPMI-8226 leukemia, greater than 19.9 µM. For the same compound, the TGI is 4.06 µM in the experiment with MCF7 breast, 7.27 µM with NCI-H23 lung, greater than 59.3 µM in the experiment with SF-268 CNS and 22.5 µM with HOP-62 NSCLC.
